Results taken from publication PMC8037809, “Biomimetic Chromatographic Studies Combined with the Computational Approach to Investigate the Ability of Triterpenoid Saponins of Plant Origin to Cross the Blood–Brain Barrier” (International Journal of Molecular Sciences, 2021).
Read-outs that look alike come from different tables or passages of the source.

Columns and labels:
[1] = parameters: method as in earlier work; settings: experimentally obtained; QSAR training and test sets; cited from earlier work
[2] = tested on: ethanol-induced memory impairment; parameters: method as in PMID 18521966; settings: mice; cited from earlier work
[3] = tested on: hippocampal CA1 region pyramidal neurons; parameters: method as in PMID 19433075; settings: ischemia/reperfusion; cited from earlier work
[4] = biomimetic chromatography (BMC, IAM, CHOL) with the QSAR equation, compared with computational logBB; settings: for ability to cross the BBB (conclusion): from biomimetic and computational studies
Excerpt: To calculate the logBB values for the tested saponins, the QSAR model previously obtained was used. In this QSAR predictive model the BBB penetration potential was correlated with the lipophilic properties (logPow), excess molar refraction (E), the difference between the logarithms of n-octanol/water and cyclohexane/water partition coefficients values (ΔlogP) being the hydrogen-bonding potential:logBB = −0.114 − 0.098 ΔlogP + 0.278 logPow + 0.218E(2)
Chromatographic biomimetic methods, including IAM, BMC, and CHOL, were used to determine BBB permeability of the tested triterpenoid saponins. For this purpose, the values of logkw, being the logarithm of retention factor extrapolated to pure water, were determined. These values were compared with the logBB values calculated in silico and those obtained using the QSAR model (Equation (2)). Logkw is recognized to be an alternative to the logPow lipophilicity descriptor [96]. On the other hand, lipophilicity is one of the most important features influencing the ability of substances to cross biological barriers.
Moreover, for the micellar biomimetic studies (BMC), Foley’s equation [97] (Equation (3)) was used to calculate important physicochemical parameters, i.e., the analyte–micelle association constant (KMA) and the partition coefficient of the analyte between the stationary phase and water (Psw). These parameters can describe possible interactions in the micellar system since the Brij35 micelle can be treated as a simple model of a biological barrier. (3) 1/k= KMA/PSWΦCM+ 1/PSWΦ where k is the retention factor, CM is the concentration of micelles, KMA is the analyte–micelle association constant, PSW is the partition coefficient of the analyte between the stationary phase and water, and Φ is the volume ratio of the stationary phase to the mobile phase volume.
As mentioned above the logkw parameter, obtained from the biomimetic chromatographic systems, is recognized to be an alternative to the logarithm of the n-octanol/water partition coefficient (logPow) lipophilicity descriptor. Therefore, logkw-BMC, logkw-IAM, and logkw-CHOL values were used for the calculation of logBB based on the QSAR equation (Equation (2)), instead of the logPow parameter. The values of logBB-BMC, logBB-IAM, and logBB-CHOL were thus calculated. In Figure 2 the above-mentioned logBB values and logBB in silico calculated using the ACD/Percepta software, as well as those of logKMA that can be treated as an equivalent to the logBB parameter, are presented.
The solutions of analytical standards of the studied triterpenoid saponins were prepared in methanol (Merck, Darmstadt, Germany; p.a.) at a concentration of 1 mg/mL. […] In the research each system was optimized previously. In the IAM and CHOL studies, acetonitrile-phosphate buffer solutions (0.3; 0.4; 0.5; 0.6 v/v; pH 7.4) were used as mobile phases. In the case of BMC analysis, the buffered solution of Brij35 (0.075; 0.1; 0.125; 0.15 mol/dm^3; pH 7.4) was used as the mobile phase with the addition of isopropanol as an organic modifier (7% v/v). The buffer was prepared from the solutions of Na2HPO4 and citric acid (0.01 mol/dm^3) and the pH 7.4 value was fixed before the preparation of the mobile phases.
The following stationary phases were employed: IAM.PC.DD2 100 × 4.6 mm i.d., 10 µm (Regis Chemicals Company, Morton Grove, IL, USA); Cosmosil Cholester, 75 × 2 mm i.d., 2.5 µm (Genore, Warsaw, Poland); Purosphere RP-18e (ODS), 125 × 4 mm i.d., 5 µm (Merck, Darmstadt, Germany). The flow rates were established as follows: 1.3 mL/min (IAM), 0.4 mL/min (CHOL), and 1 mL/min (BMC). The tested saponins were detected with UV light at 254 nm. All measurements were made at 25 °C. The dead time values were measured from the non-retained compound (citric acid) peaks. All reported logkw values are the average of at least three independent measurements.

[5] = parameters: method as in doi:10.1556/1326.2017.00147; settings: rat, intragastric administration of the extract, postmortem; cited from earlier work
[6] = tested on: memory deficits and anxiety induced by Aβ25-35; settings: rats, Aβ25-35 into the lateral ventricles; cited from earlier work

Row | SMILES | logBB [1] | also measured
1 | CN1CC[C@]23c4c5ccc(O)c4O[C@H]2[C@@H](O)C=C[C@H]3[C@H]1C5.Cl [52-26-6] | –0.16 | –
2 | Cc1ccccc1NC1=NCCN1 [36318-56-6] | 0.04 | –
3 | Cc1cc(Cl)ccc1NC1=NCCN1 [4201-26-7] | 0.14 | –
4 | Brc1cc(Br)c(NC2=NCCN2)c(Br)c1 [38941-33-2] | 0.58 | –
5 | CNC(C)CC1CCCCC1 (stereo not shown) [101-40-6] | 1.08 | –
6 | C[C@@H]1O[C@@H](O[C@H]2[C@H](OC(=O)[C@]34CCC(C)(C)C[C@H]3C3=CC[C@@H]5[C@@]6(C)C[C@H](O)[C@H](O[C@@H]7O[C@H](CO)[C@@H](O)[C@H](O)[C@H]7O)C(CO)(CO)[C@@H]6CC[C@@]5(C)[C@]3(C)C[C@H]4O)OC[C@H](O)[C@@H]2O)[C@H](O)[C@H](O)[C@H]1O[C@@H]1OC[C@@H](O)[C@H](O[C@@H]2OC[C@](O)(CO)[C@H]2O)[C@H]1O [Platycodin D] | – | effect on ethanol-induced memory impairment [2]: could improve ethanol-induced memory impairment; protection from ischemic damage [3]: protects the hippocampal CA1 region pyramidal neurons from an ischemic damage; average logBB ([4]; average of all obtained logBB values (biomimetic and computational)): −1.681; ability to cross the BBB (conclusion) [4]: does not cross this barrier; logBB ([4]; span of the obtained values over the methods): −2 to −1.29
7 | Cc1c(O)cccc1C(=O)N[C@@H](CSc1ccccc1)[C@H](O)CN1C[C@H]2CCCC[C@H]2C[C@H]1C(=O)NC(C)(C)C [159989-64-7] | –0.93 | –
8 | Cc1ccc(Cc2cnc(NCCSCc3ccc(CN(C)C)o3)[nH]c2=O)cn1 [83903-06-4] | –1.06 | –
9 | CC(C)NCC(O)COc1ccc(CC(N)=O)cc1 (stereo not shown) [29122-68-7] | –1 | –
10 | O=C(CCC1CCN(Cc2ccccc2)CC1)c1ccc2c(c1)NCCCC2 [142852-50-4] | 1.14 | –
11 | CC(C)NCC(O)COc1ccc(CCOCC2CC2)cc1 (stereo not shown) [63659-18-7] | 0.39 | –
12 | CC1(C)CC[C@]2(C(=O)O)CC[C@]3(C)C(=CC[C@@H]4[C@@]5(C)C[C@@H](O)[C@H](O)C(C)(C)[C@@H]5CC[C@]43C)[C@@H]2[C@@H]1O [Arjunic acid] | – | presence in brain tissues [5]: present in rat brain tissues; ability to cross the BBB (conclusion) [4]: can penetrate the BBB
13 | CC(C)=C[C@H]1C[C@](C)(O)[C@@H]2[C@H]3CC[C@@H]4[C@@]5(C)CC[C@H](O[C@@H]6O[C@H](CO)[C@@H](O)[C@H](O[C@@H]7O[C@H](CO)[C@@H](O)[C@H](O)[C@H]7O)[C@H]6O[C@@H]6O[C@@H](CO)[C@H](O)[C@H]6O)C(C)(C)[C@@H]5CC[C@@]4(C)[C@@]34CO[C@@]2(C4)O1 [Bacoside A] | – | ability to cross the BBB (conclusion) [4]: can penetrate the BBB
14 | CC1(C)CCC2(C(=O)OC3OC(COC4OC(CO)C(O)C(O)C4O)C(O)C(O)C3O)CCC3(C)C(=CCC4C5(C)CCC(OC6OCC(O)C(O)C6O)C(C)(CO)C5CCC43C)C2C1 (stereo not shown) [Akebia saponin D] | – | effect on memory deficits and anxiety symptoms [6]: could significantly ameliorate the memory deficits and anxiety symptoms; ability to cross the BBB (conclusion) [4]: can penetrate the BBB
15 | Clc1ccc(NC2=NCCN2)c(Cl)c1 [23830-88-8] | 0.16 | –
16 | C=CCC1(C(C)CCC)C(=O)NC(=O)NC1=O (stereo not shown) [76-73-3] | 0.2 | –
17 | COc1ccc2nc([S+]([O-])Cc3ncc(C)c(OC)c3C)[nH]c2c1 (stereo not shown) [73590-58-6] | –0.82 | –
18 | CN1C(=O)CN=C(c2ccccc2)c2cc(Cl)ccc21 [439-14-5] | 0.56 | –
19 | CN(C)C(=O)C(CCN1CCC(O)(c2ccc(Cl)cc2)CC1)(c1ccccc1)c1ccccc1 [53179-11-6] | 0.77 | –
